Results reported in patent EP0286926A2, “Semi-synthetic rhodomycins, method for their preparation and their use as cytostatics” (BEHRINGWERKE Aktiengesellschaft, priority 1987, dated 1988).
Converted amounts (≈) assume the structure as drawn. Like-named read-outs stand apart in the source and are kept apart here.

System: L1210 Leukämiezellen
Assay: Colony formation of L1210 leukemia cells in soft agar
Assay type: cell-based, Maus
Settings: Mus musculus
Excerpt: Die zytostatische Wirksamkeit der erfindungsgemäßen Verbindungen wurde anhand von L1210 Leukämiezellen der Maus getestet. Hierzu wurde die Koloniebildung von L1210 Leukämiezellen in Agarplatten herangezogen. Diese Methode dient zum Nachweis des Einflusses der Testsubstanzen auf das Wachstumsverhalten der Zellen nach Inkubation von 1 Stunde oder über mehrere Generationen. Bei einer Zelzykluszeit von 10-12 Stunden werden dabei in der Testzeit von 7 Tagen etwa 14 aufeinanderfolgende Generationen beobachtet. Die erfindungsgemäßen zytostatisch wirksamen Substanzen bewirken in diesem Test eine Reduktion der zu beobachtenden Koloniezahl gegenüber einer unbehandelten Kontrollprobe.
Einzelheiten des Testverfahrens ergeben sich aus der nachfolgenden Verfahrensweise zur Ermittlung der Koloniebildung.
Verfahrensweise zur Ermittlung der Koloniebildung von L1210 Leukämiezellen in Soft-Agar
500 Leukämiezellen pro Platte wurden mit unterschiedlichen Konzentrationen der Testsubstanz 1 Stunde bei 37°C inkubiert. Anschließend wurden die Zellen zweimal mit McCoy5A-Medium gewaschen und schließlich in Petrischalen nach Zugabe von 0,3 % Agar ausgegossen. Kontrollen wurden lediglich mit frischem Medium inkubiert. Anstelle der einstündigen Inkubation wurden in manchen Fällen unterschiedliche Konzentrationen und Testsubstanzen der oberen Agarschicht zugemischt, um so eine kontinuierliche Exposition der Zellen über die gesamte Inkubationszeit zu erreichen. Nach Erstarren des Agars wurden die Platten im Brutschrank 7 Tage bei 37°C inkubiert (5 Vol.-% CO₂, 94 % relative Luftfeuchtigkeit). Anschließend wurde die Zahl der entstandenen Kolonien mit einem Durchmesser von mehr als 60 µm gezählt. Die Ergebnisse wurden angegeben als Koloniezahl in behandelten Agarplatten in Prozent der unbehandelten Kontrolle. Aus der so erhaltenen Dosiswirkungskruve wurde die IC₅₀ als Maß für die Wirksamkeit der Substanz ermittelt. Die Ergebnisse für die hier beschriebenen Verbindungen im Vergleich zu Adriamycin sind in der nachfolgenden Tabelle 1 zusammengefaßt.

[1] = L1210, 168 h, continuous exposure: substance mixed into upper agar layer for the whole 7-day incubation at 37°C, colonies > 60 µm counted, percent of untreated control, read-out: Dauerinkubation IC50
[2] = L1210, 1 h incubation with substance at 37°C, cells washed twice, then plated in 0,3 % agar for 7 days, colonies > 60 µm counted, read-out: 1h-Inkubation IC50
[3] = L1210, read-out: 1h-Inkubation IC50

`CC[C@@]1(O)C[C@H](O[C@H]2C[C@H](N)[C@@H](O)[C@H](C)O2)c2c(O)c3c(c(O)c2[C@H]1O[C@H]1C[C@H](N)[C@H](O)[C@H](C)O1)C(=O)c1cccc(O)c1C3=O` [Beispiel 37, 7-O-α-L-Acosaminyl-10-0-α-L-daunosaminyl-β-rhodomycinon] was tested. Which IC50 [1] did it give?
The IC50 was > 1 µg/mL.

What about the IC50 [2] of the same molecule?
Its IC50 is > 1 µg/mL.

For `CC[C@@]1(O)C[C@H](O[C@H]2C[C@H](N(C)C)[C@H](OC(=O)c3ccccc3)[C@H](C)O2)c2c(O)c3c(c(O)c2[C@H]1O[C@H]1C[C@H](NC(=O)C(F)(F)F)[C@@H](OC(=O)c2ccc([N+](=O)[O-])cc2)[C@H](C)O1)C(=O)c1cccc(O)c1C3=O` [Beispiel 38, 7-0-(4-0-Benzoyl-α-L-rhodosaminyl)-10-0-(4-0-paranitrobenzoyl-3-N-trifluoracetyl-α-L-acosaminyl)-β-rhodomycinon], which IC50 [1] is on record?
The IC50 was > 1 µg/mL.

What about the IC50 [2] of the same molecule?
Its IC50 is > 1 µg/mL.

How did the IC50 [1] turn out when `CC[C@@]1(O)C[C@H](O[C@H]2C[C@H](N(C)C)[C@H](O)[C@H](C)O2)c2c(O)c3c(c(O)c2[C@H]1O[C@H]1C[C@H](N)[C@@H](O)[C@H](C)O1)C(=O)c1cccc(O)c1C3=O` [Beispiel 40, 10-0-α-L-Acosaminyl-7-0-α-L-rhodosaminyl-β-rhodomycinon] was run?
Its IC50 is 0.85 µg/mL (≈ 1.26 µM).

What about the IC50 [2] of the same molecule?
The IC50 was > 1 µg/mL.

`CC[C@@]1(O)C[C@H](O[C@H]2C[C@H](N)[C@H](O)[C@H](C)O2)c2c(O)c3c(c(O)c2[C@H]1O[C@H]1C=C[C@@H](O)[C@H](C)O1)C(=O)c1cccc(O)c1C3=O` [Beispiel 42, 10-0-(2,3,6-Tridesoxy-α-L-erythro-hex-2-enopyranosyl)-7-0-α-L-daunosaminyl-β-rhodomycinon] was tested. Which IC50 (L1210, 168 h, read-out: Dauerinkubation IC50) did it give?
The IC50 was 0.16 µg/mL (≈ 0.255 µM).

And the IC50 [3]?
The IC50 was > 1 µg/mL.

`CC[C@@]1(O[C@H]2C[C@H](N)[C@@H](O)[C@H](C)O2)C[C@H](O[C@H]2C[C@H](N)[C@@H](O)[C@H](C)O2)c2c(O)c3c(c(O)c2[C@H]1O[C@H]1C[C@H](N)[C@@H](O)[C@H](C)O1)C(=O)c1cccc(O)c1C3=O` [Beispiel 44, 7,9,10-Tri-O-α-L-acosaminyl-β-rhodomycinon] was tested. Which IC50 [3] did it give?
Its IC50 is > 1 µg/mL.

With `CC[C@@]1(O)C[C@H](O[C@H]2C[C@H](NC(=O)C(F)(F)F)[C@@H](O)[C@H](C)O2)c2c(O)c3c(c(O)c2[C@H]1O)C(=O)c1cccc(O)c1C3=O` [Beispiel 45, 7-O-(3-N-Trifluoracetyl-α-L-acosaminyl)-ß-rhodomycinon] as the molecule, how does the IC50 [2] read?
Its IC50 is 0.29 µg/mL (≈ 0.474 µM).

With `CC[C@@]1(O)C[C@H](O[C@H]2C[C@@H](N)[C@@H](O)[C@H](C)O2)c2c(O)c3c(c(O)c2[C@H]1O)C(=O)c1cccc(O)c1C3=O` [Beispiel 46, 7-O-α-L-Ristosaminyl-β-rhodomycinon] as the molecule, how does the IC50 [2] read?
The IC50 was 0.11 µg/mL (≈ 0.213 µM).

How did the IC50 [2] turn out when `CC[C@@]1(O)C[C@H](O[C@H]2C[C@H](N)[C@@H](OCc3ccccc3)[C@H](C)O2)c2c(O)c3c(c(O)c2[C@H]1O)C(=O)c1cccc(O)c1C3=O` [Beispiel 48, 7-O-(4-O-Benzyl-α-L-acosaminyl)-β-rhodomycinon] was run?
The IC50 was 0.095 µg/mL (≈ 0.157 µM).

Which IC50 [3] does the source give for `CC[C@@]1(O)C[C@H](O[C@H]2C[C@H](NC(=O)C(F)(F)F)[C@@H](OCc3ccccc3)[C@H](C)O2)c2c(O)c3c(c(O)c2[C@H]1O)C(=O)c1cccc(O)c1C3=O` [Beispiel 49, 7-O-(4-O-Benzyl-3-N-trifluoracetyl-α-L-acosaminyl)-β-rhodomycinon] here?
The IC50 was > 1 µg/mL.

`CC[C@@]1(O)C[C@H](O[C@@H]2O[C@@H](C)[C@H](O)[C@@H](O)[C@H]2I)c2c(O)c3c(c(O)c2[C@H]1O)C(=O)c1cccc(O)c1C3=O` [Beispiel 50, 7-O-(2,6-Didesoxy-2-iodo-α-L-mannopyranosyl)-β-rhodomycinon] was tested. Which IC50 [1] did it give?
The IC50 was 0.1 µg/mL (≈ 0.156 µM).

Which results are given for `CC[C@@]1(O)C[C@H](O[C@H]2C[C@H](N)[C@@H](OCc3ccccc3)[C@H](C)O2)c2c(O)c3c(c(O)c2[C@H]1O[C@H]1C[C@H](N)[C@@H](OCc2ccccc2)[C@H](C)O1)C(=O)c1cccc(O)c1C3=O` [Beispiel 51, 7,10-Di-O-(4-O-Benzyl-α-L-acosaminyl)-β-rhodomycinon]?
IC50 [1]: 0.4 µg/mL (≈ 0.485 µM); IC50 [2]: 0.68 µg/mL (≈ 0.824 µM)

`CC[C@@]1(O)C[C@H](O[C@H]2C[C@H](NC(=O)C(F)(F)F)C[C@H](C)O2)c2c(O)c3c(c(O)c2[C@H]1O)C(=O)c1cccc(O)c1C3=O` [Beispiel 52, 7-O-(4-Desoxy-3-N-trifluoracetyl-α-L-daunosaminyl)-β-rhodomycinon] was tested. Which IC50 [2] did it give?
The IC50 was 0.66 µg/mL (≈ 1.11 µM).

For `CC[C@@]1(O)C[C@H](O[C@H]2C[C@H](N)C[C@H](C)O2)c2c(O)c3c(c(O)c2[C@H]1O)C(=O)c1cccc(O)c1C3=O` [Beispiel 53, 7-O-(4-Desoxy-α-L-daunosaminyl)-β-rhodomycinon], which IC50 [1] is on record?
The IC50 was 0.04 µg/mL (≈ 0.0801 µM).

And the IC50 [2]?
Its IC50 is 0.05 µg/mL (≈ 0.1 µM).
